Measured values as given in US7691887B2, “Triazole derivatives which are SMO antagonists” (Merck Sharp & Dohme Corp., priority 2007, dated 2010).

Tested on: Hh pathway (Smo) in Shh-Light II cells
Assay: Shh-Light II Reporter Assay (firefly/Renilla luciferase)
Type: cell-based
Conditions: Mus musculus; for IC50: 3 uM Purmorphamine stimulation, 30 hrs
Experimental: Shh-Light II Reporter Assay
Assay designed to measure firefly and Renilla luciferase, in the same well.
Prior to assay the Shh-Light II cells (ATCC Catalog No. CRL-2795) were cultured in growth media
Day −1: seed 60,000 Shh-Light II cells in assay medium 75 uL/well, in presence of DMSO/inhibitor.
Day 0: after overnight incubation at 37° C. 10% CO2 add 3 uM of Purmorphamine (Calbiochem 540220) in water.
Day 1: After 30 hrs at 37° C. 10% CO2 of incubation develop the assay, directly to cells in growth medium. • Add 75 μl of DualGlow Luciferase Reagent (Promega, E2940) • Incubate 10 min. in the dark • Read plate at Luminometer: TopCount, by PerkinElmer • Add 75 ul of DualGlow Stop & Glow • Incubate 10 min. in the dark • Read plate at Luminometer: TopCount, by PerkinElmer. • Output is the ratio between FireFly/Renilla counts Growth Media: For Growth:
DMEM: Dulbecco's Mod Eagle Medium with 0.11 G/L Pyr, with Pyridoxine. (GIBCO Cat No: 41966-029). The medium has complemented with 10% FCS (fetal bovine serum), 1% Penicillin-Streptomycin (10 mg/ml) (GIBCO, 15140-114) and 1% L-Glutamine 200 mM (100×) (GIBCO, 3042190) and 0.4 mg/ml of G418 (Roche) and 0.15 mg/ml Zeocyne (Invitrogen R-250-01). Cells cultured at 10% CO2.
DMEM: Dulbecco's Mod Eagle Medium with 0.11 G/L Pyr, with Pyridoxine. (GIBCO Cat No: 21063-045), without Phenol Red. The medium has complemented with 2% FCS (fetal bovine serum), 1% Penicillin-Streptomycin (10 mg/ml) (GIBCO, 15140-114) and 1% L-Glutamine 200mM (100×) (GIBCO, 3042190). Cells cultured at 10% CO2. DMSO 0.25%.

IC50 [µM]	Compound	inhibition at 5 µM (5 μM compound) [%]
1.4	Cn1c(-c2ccccc2C(F)(F)F)nnc1C12CCC(c3noc(C4CC(F)(F)C4)n3)(CC1)CC2 [Example 2, 5-(3,3-Difluorocyclobutyl)-3-(4-{4-methyl-5-[2-(trifluoromethyl)phenyl]-4H-1,2,4-triazol-3-yl}bicyclo[2.2.2]oct-1-yl)-1,2,4-oxadiazole]	
9.3	Cn1c(-c2ccccc2C(F)(F)F)nnc1C12CCC(c3nnc(C(C)(F)F)o3)(CC1)CC2 [Example 4, 2-(1,1-Difluoroethyl)-5-(4-{4-methyl-5-[2-(trifluoromethyl)phenyl]-4H-1,2,4-triazol-3-yl}bicyclo[2.2.2]oct-1-yl)-1,3,4-oxadiazole]	
4.2	Cn1c(-c2ccccc2C(F)(F)F)nnc1C12CCC(c3noc(C(C)(C)F)n3)(CC1)CC2 [Example 3, 5-(1-Fluoro-1-methylethyl)-3-(4-{4-methyl-5-[2-(trifluoromethyl)phenyl]-4H-1,2,4-triazol-3-yl}bicyclo[2.2.2]oct-1-yl)-1,2,4-oxadiazole]	
	Cn1c(-c2ccccc2C(F)(F)F)nnc1C12CCC(c3noc(C(C)(F)F)n3)(CC1)CC2 [Example 1, 5-(1,1-Difluoroethyl)-3-(4-{4-methyl-5-[2-(trifluoromethyl)phenyl]-4H-1,2,4-triazol-3-yl}bicyclo[2.2.2]oct-1-yl)-1,2,4-oxadiazole]	35
2	Cn1c(-c2ccccc2C(F)(F)F)nnc1C12CCC(c3nnc(C4CC(F)(F)C4)o3)(CC1)CC2 [Example 5, 2-(3,3-Difluorocyclobutyl)-5-(4-{4-methyl-5-[2-(trifluoromethyl)phenyl]-4H-1,2,4-triazol-3-yl}bicyclo[2.2.2]oct-1-yl)-1,3,4-oxadiazole]	
